# Literature values as cited in patent publication US4554271A, “Use of high doses of derivatives of 6α-methylprednisolone for the acute treatment of stroke syndrome” (The Upjohn Company, priority 1984, dated 1985).
# Counter-ions that a name gives are not always drawn. Like-named read-outs stand apart in the source and are kept apart here.
# Assays:
# (Na^+ +K^+)-ATPase [1] = conditions: for (Na^+ +K^+)-ATPase activity in the injured cord: cat
# [2] = tested on: adenylate cyclase systems
# [3] = tested on: cyclic guanosine 3',5'-monophosphate (cyclic GMP); conditions: cat
# [4] = tested on: spinal cord-injured animals; conditions: comparable doses (15 to 30 mg/kg) soon after injury; other studies
# cerebral ischemia = conditions: anesthetized gerbil; 35 mg/kg; bilateral occlusion of the carotid arteries
# [5] = tested on: cardiac, renal, and hepatic ischemia; conditions: in vivo
# [6] = single 30-mg/kg dose
# [7] = tested on: ischemia-induced neurological deficits; conditions: gerbils; title of cited paper
# motor neuron = conditions: cat; large intravenous doses
# (Na^+ +K^+)-ATPase [8] = conditions: cat spinal cord; large intravenous doses
# lipid peroxide formation = conditions: cat spinal cord; large intravenous doses
# [9] = tested on: canine middle cerebral artery (MCA); conditions: canine MCA embolization, embolectomy at 6 hours; DMSO 2 gm/kg
# [10] = 15- or 30-mg/kg intravenous dose given 30 minutes after trauma, earlier studies
smiles,measurement,setting,value
"C[C@H]1C[C@@H]2[C@H]([C@@H](O)C[C@@]3(C)[C@H]2CC[C@]3(O)C(=O)CO)[C@@]2(C)C=CC(=O)C=C12 [methylprednisolone, 1-Dehydro-6α-methylhydrocortisone]",lipid peroxidation at 1 hour after injury,lipid peroxidation; [10],significantly reduce
same,injury-induced increase in fluorescence (lipid peroxy products) in spinal segment,"lipid peroxidation; cat, 15 or 30 mg/kg i.v. at 30 minutes after injury, read at 1 hour",completely prevented
same,(Na^+ +K^+)-ATPase activity at 1 hour after injury,(Na^+ +K^+)-ATPase [1]; [10],enhance
same,(Na^+ +K^+)-ATPase activity in the injured cord,(Na^+ +K^+)-ATPase [1]; 30-mg/kg dose,striking increase
same,(Na^+ +K^+)-ATPase activity in the injured cord,(Na^+ +K^+)-ATPase [1]; 60-mg/kg dose,depression in activity
same,damaging effect (adenylate cyclase systems) of 60 minutes occlusion plus 15 minutes recirculation,"[2]; barbiturate-anesthetized gerbils, pretreatment 30 mg/kg, 30 min. prior to carotid ligation",prevented
same,chronic (7 days) enzyme damage elicited by 15 minutes of bilateral stroke,"[2]; gerbils, preliminary work",prevented
same,injury-induced increase in cyclic GMP content in spinal segment,"[3]; 15 or 30 mg/kg i.v. at 30 minutes after injury, read at 1 hour",completely prevented
same,elevation in cyclic GMP,[3]; 60-mg/kg dose,did not prevent
same,duration of its pharmacological actions,"cat, single intravenous administration",roughly 3 hours
same,spinal cord tissue levels of methylprednisolone at which each of the effects is apparent,"cat, single intravenous dose of 30 mg/kg",around 1.3 μg/gm wet weights
same,half-life in cat spinal cord,"single intravenous administration, 30 mg/kg",roughly 3 hours
same,recovery and tissue preservation in spinal cord-injured animals,[4],significantly greater
same,survival after cerebral ischemia,cerebral ischemia,improved survival
same,"relieving cardiac, renal, and hepatic ischemia",[5],effective
same,harmful effects,[6],virtually without harmful effects
C=CCN1CC[C@]23c4c5ccc(O)c4O[C@H]2C(=O)CC[C@@]3(O)[C@H]1C5 [naloxone],reversal of ischemia-induced neurological deficits,[7],Failure
"C[C@H]1C[C@@H]2[C@H]([C@@H](O)C[C@@]3(C)[C@H]2CC[C@]3(O)C(=O)COC(=O)CCC(=O)O)[C@@]2(C)C=CC(=O)C=C12 [methylprednisolone sodium succinate, 1-dehydro-6α-methylhydrocortisone 21-hemisuccinate sodium salt]",impulse conduction along the myelinated portion of the motor axon,motor neuron,accelerated
same,motor neuron resting membrane potentials,motor neuron,hyperpolarization
same,spinal cord (Na^+ +K^+)-ATPase activity,(Na^+ +K^+)-ATPase [8],enhancement
same,lipid peroxide formation,lipid peroxide formation,attenuation
"C[S+](C)[O-] [DMSO, dimethyl sulfoxide]",infarction of the brain,[9],no infarction
